Results taken from patent US10507247B2, “Optical probes for matrix metalloproteinases” (The University Court of the University of Edinburgh, priority 2015, dated 2019).
Primed or numbered codes have the meaning given here. Where no end group is shown, it is not given here. [ ]: non-standard residue; d: D form. The star is where a group is joined. 5FAM = O=C1OC2(c3ccc(O)cc3Oc3cc(O)ccc32)c2ccc(C(=O)*)cc21; MethylRed = CN(C)c1ccc(/N=N/c2ccccc2C(=O)*)cc1; PEG2′ = PEG spacer unit (glycol linker); Nle = CCCC[C@H](N)C(=O)O; Ahx = NCCCCCC(=O)O; βAla = NCCC(=O)O

What was measured:
MMP = assay: Activation of probe variants by MMP in vitro; format: biochemical
Procedure: The selectivity of the probes, together with further probes AMF-14b, SVC-030 (both defined in Table 6 below) and SVC-068 (defined in Table 4 below), to detect MMP over elastase, another proteinase relevant in lung disease, was tested and the results for all probes are shown in FIG. 2.
Variants consisting of D-amino acids at the recognition site sequence with or without blocking PEG units were also synthesised and assessed.
(§1) The enzyme assays were run in a 384-well format on a PCR opaque microplate (Thermo Scientific). All dilutions and reactions were prepared in MMP buffer (50 mM Tris, 10 mM CaCl2, 0.15M NaCl, 0.05% Brij-35, pH 7). Proteolytic activity was determined by calculating the fold change in fluorescence over background signal provided by the corresponding dilution of the probe and/or inhibitors with exogenous enzymes using a-multiwell plate fluorimeter (Synergy H1 Hybrid Reader, BioTek instruments Ltd) at excitation/emission 485/528 nm. Recombinant human MMPs (Catalytic domain MMP-1, -2, -3, -7, -8, -9, -10, -11, -12, -13 (Enzo Life Sciences) and Full-length MMP-2, -9, -12 and -13 (Merck/Millipore)) were used at 30 nM. Pro-MMP-13 (R & D Systems) was activated by incubating with 1 mM 4-aminophenylmercunc acetate (APMA) for 2 hrs at 37° C. Human neutrophil elastase (Elastase Product Company, used at 2.5 ug/ml), neutrophil lysate (lysed human neutrophils), and recombinant human Thrombin (Sigma-Aldrich, used at 5 U/ml), Plasmin (Sigma-Aldrich, used at 30 nM) and Factor Xa (Sigma-Aldrich, used at 0.5 μM) were used to identify the lead molecular probe sequences. For inhibition assays, enzyme and inhibitor were pre-incubated for 1 hr at 37° C. before the addition of molecular probe.

MMP-2 = assay: Enzyme assay, fold change in probe fluorescence over background with MMP-2; format: biochemical; conditions: FRET monomers; recombinant human catalytic domain MMP at 30 nM; ex/em 485/528 nm
Procedure: (§2) Enzyme specificity of the lead probes with exogenous enzymes was tested using a multiwell plate fluorimeter at excitation/emission 485/528 nm (Table 3). Recombinant human catalytic domain MMPs-1, -2, -3, -7, -8, -9, -10, -11, -12, -13 were used at 30 nM. Cleavage site for each sequence is indicated in italics.
as §1

Thrombin = biological target: T1, Thrombin (Homo sapiens, UniProt P00734); assay: Enzyme assay, fold change in probe fluorescence with Thrombin; format: biochemical; conditions: recombinant human Thrombin 5 U/ml; ex/em 485/528 nm
T1 construct: purchased Sigma-Aldrich
Procedure: as §2, §1

MMP-12 = biological target: T2, MMP-12 (Homo sapiens, UniProt P39900); assay: Enzyme assay, fold change in probe fluorescence over background with MMP-12; format: biochemical; conditions: FRET monomers; recombinant human catalytic domain MMP at 30 nM; ex/em 485/528 nm
T2 construct: Recombinant human catalytic domain MMPs-1, -2, -3, -7, -8, -9, -10, -11, -12, -13 were used at 30 nM; purchased Enzo Life Sciences
Procedure: as §2, §1

MMP-9 = assay: Enzyme assay, fold change in probe fluorescence over background with MMP-9; format: biochemical, human; conditions: for MMP-9 (39.0 kDa), fold change in fluorescence over background: FRET monomers, recombinant human catalytic domain MMP at 30 nM, ex/em 485/528 nm; for MMP-9 (83 kDa), fold change in fluorescent signal: different probe scaffolds (monomer, dendrimers)
Procedure: A library of probes (listed in Table 2 below) containing FAM (Carboxyfluorescein) as the fluorophore (donor) and MethylRed (MR) as the quencher (acceptor) and a variety of peptide sequences was synthesized by manual standard solid-phase Fmoc peptide chemistry (described below).
as §2
(§3) The different compounds were also evaluated according to the fold change in fluorescent signal in presence of MMP-9 and MMP-13, and the results are shown in Table 7. From this comparison, the FRET dendrimers comprising SEQ ID NO.1 and SEQ ID NO.7 (AMF-106 and SVC-186) together with the 9Dendrimer comprising SEQ ID NO.7 (SVC-196) were chosen for further evaluation. These dendrimers are shown in FIG. 7, probe A (AMF-106), probe B (SVC-186) and probe C (SVC-196).
as §1

MMP-13 [1] = biological target: MMP-13 (Homo sapiens, UniProt P45452); assay: Enzyme assay, fold change in probe fluorescence over background with MMP-13; format: biochemical; parameters: purchased Enzo Life Sciences (catalytic domain); Merck/Millipore (full-length); conditions: FRET monomers; recombinant human catalytic domain MMP at 30 nM; ex/em 485/528 nm
Procedure: as §2, §3, §1

MMP-13 [2] = assay: as above; format: biochemical, human; conditions: different probe scaffolds (monomer, dendrimers); MMP-13 52 kDa
Procedure: as §2, §3, §1

[3] = system: MMPs-1, -2, -3, -7, -8, -9, -10, -11, -12, -13, Thrombin, Plasmin and Factor Xa; assay: Enzyme specificity of the FRET branched probes with exogenous enzymes (FIG. 8); format: biochemical, human; conditions: probe 10 μM
Procedure: FIG. 8. Enzyme specificity of the FRET branched probes A, B and C. Data represents the average fold change in fluorescence over background signal provided by probe (10 μM) with exogenous enzymes using a multiwell plate fluorimeter (Synergy H1 Hybrid Reader, BioTek instruments Ltd) at excitation/emission 485/528 nm. Recombinant human catalytic domain MMPs-1, -2, -3, -7, -8, -9, -10, -11, -12, -13 were used at 30 nM. Recombinant human Thrombin, Plasmin and Factor Xa were used at 5 U/ml, 30 nM, 0.5 μM, respectively.
Three selected probes (A: AMF-106, B: SVC-186 B, and C: SVC-196) were evaluated in vitro in a new experiment including other members of the MMP family (MMPs-1, -2, -3, -7, -8, -9, -10, -11, -12, -13) as well as Thrombin, Plasmin and Factor Xa, and the results are shown in FIG. 8. […] The plasmin cleavage site was identified and attempts to make a resistant version replacing with D-aa in these positions were unsuccessful.
as §1

Chain of MMP-2 (P08253 with tags, fused parts or gaps DEL222-396 limits assumed): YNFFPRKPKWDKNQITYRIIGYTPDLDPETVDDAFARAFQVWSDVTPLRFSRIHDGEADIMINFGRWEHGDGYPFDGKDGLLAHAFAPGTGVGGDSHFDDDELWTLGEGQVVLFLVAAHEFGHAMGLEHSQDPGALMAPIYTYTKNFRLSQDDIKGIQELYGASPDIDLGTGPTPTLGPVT
T2 sequence (P39900 106-263 limits assumed): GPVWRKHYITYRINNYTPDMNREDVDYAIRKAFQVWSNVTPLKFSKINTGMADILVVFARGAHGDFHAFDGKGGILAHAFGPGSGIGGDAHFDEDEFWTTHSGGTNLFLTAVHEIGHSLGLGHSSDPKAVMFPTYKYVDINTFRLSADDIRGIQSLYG

Row | MMP-2 (20.3 kDa), fold change in fluorescence over background (MMP-2) | Inflammatory mediators: Thrombin, fold change in fluorescence over background (Thrombin) | MMP-12 (20.3 kDa), fold change in fluorescence over background (MMP-12) | MMP-9 (39.0 kDa), fold change in fluorescence over background (MMP-9) | MMP-13 (20.4 kDa), fold change in fluorescence over background (MMP-13 [1]) | MMP-13 (52 kDa), fold change in fluorescent signal (MMP-13 [2]) | MMP-9 (83 kDa), fold change in fluorescent signal (MMP-9) | signal-to-noise (fold change above the background) [3] | selectivity for MMP-2/9 ([3]; MMPs 30 nM, Thrombin 5 U/ml, Plasmin 30 nM, Factor Xa 0.5 μM) | Substance | intensity upon activation by MMP (MMP) | recognition of the cleavable sequence by MMP (MMP; FIG. 2)
1 |  |  |  |  |  |  |  |  |  | Ac-PEG2-PFGNleKβA-K[K(FAM)2]-PEG2-k-PEG2-k-3 probe elements [SVC-01-198] | much lower intensity | 
2 | 3.11 | 0.99 | 1.88 | 5.21 | 13.57 |  |  |  |  | FAM-PEG2-P-F-G-M-K-βA-K(MR)-NH2 [SVC-16] |  | 
3 |  |  |  |  |  | 7.11 | 2.92 |  |  | FAM-K(FAM)-PEG2-PFGNleKβA-PEG2-k-PEG2-k-3 probe elements [SVC-189] |  | 
4 | 4.24 | 1.02 | 2.61 | 8.21 | 14.88 |  |  |  |  | FAM-PEG2-P-Cha-G-M-K-G-K(MR)-NH2 [SVC-22] |  | 
5 | 3.27 | 0.94 | 2.45 | 5.89 | 11.75 |  |  |  |  | FAM-PEG2-P-Cha-G-M-F-G-K(MR)-NH2 [SVC-15] |  | 
6 | 4.01 | 0.97 | 3.05 | 7.53 | 12.93 |  |  |  |  | FAM-PEG2-P-Cha-G-M-H-G-K(MR)-NH2 [SVC-21] |  | 
7 | 4.07 | 1.04 | 2.87 | 6.90 | 11.26 |  |  |  |  | FAM-PEG2-P-Cha-G-M-Y-G-K(MR)-NH2 [SVC-19] |  | 
8 |  |  |  |  |  | 19.30 | 4.75 |  |  | FAM-PEG2-P-F-G-Nle-K-βA-K(MR)-K-K-PEG2-PEG2-NH2 [AMF-92] |  | 
9 | 1.88 | 0.96 | 1.53 | 2.02 | 5.27 |  |  |  |  | FAM-PEG2-P-F-G-Nle-K-βA-K(MR)-NH2 [AMF-25] |  | 
10 | 1.59 | 0.96 | 1.65 | 2.29 | 5.05 |  |  |  |  | FAM-PEG2-P-F-G-I-K-βA-K(MR)-NH2 [AMF-24] |  | 
11 |  |  |  |  |  | 10.57 | 3.66 |  |  | MR-K(Ac)-PEG2-GPKGLKG-K(FAM)-PEG2-k-PEG2-k-PEG2-k-NH2 [AMF-111] |  | 
12 | 1.87 | 0.89 | 3.03 | 2.50 | 6.41 |  |  |  |  | FAM-PEG2-P-F-G-L-K-βA-K(MR)-NH2 [AMF-23] |  | 
13 | 2.59 | 1.05 | 2.59 | 5.07 | 6.5 |  |  |  |  | FAM-PEG2-P-Cha-G-M-W-G-K(MR)-NH2 [SVC-17] |  | 
14 |  |  |  |  |  | 1.80 | 1.41 |  |  | FAM-PEG2-PFGNleKβA-PEG2-k-PEG2-k-3 probe elements [SVC-188] |  | 
15 | 2.10 | 1.37 | 1.54 | 4.22 | 9.33 |  |  |  |  | FAM-PEG2-G-P-K-G-I-K-G-K(MR)-NH2 ({5FAM-PEG2′}-GPKGIKGK(MethylRed)-NH2) [SVC-26] |  | 
16 | 2.54 | 0.97 | 2.15 | 4.94 | 10.04 |  |  |  |  | FAM-PEG2-P-Cha-G-M-Y(Me)-G-K(MR)-NH2 [SVC-18] |  | 
17 |  |  |  |  |  | 11.80 | 3.33 | lower signal-to-noise | poor selectivity | FAM-K(FAM)-PEG2-PFGNleKβA-K(FAM)-PEG2-k-PEG2-k-3 probe elements ({5FAM-K(FAM)-PEG2′}-PFG[Nle]K[βAla]-{K(FAM)-PEG2′-code k-PEG2′-code k}; also: three probe elements on a scaffold) [SVC-196] |  | 
18 | 5.22 | 1.00 | 3.21 | 9.61 | 15.9 |  |  |  |  | FAM-PEG2-P-Cha-G-M-K-βA-K(MR)-NH2 [SVC-20] |  | 
19 | 1.98 | 1.31 | 2.34 | 3.50 | 9.30 |  |  |  |  | FAM-PEG2-G-P-K-G-L-K-G-K(MR)-NH2 [SVC-24] |  | 
20 |  |  |  |  |  |  |  |  |  | FAM-PEG2-P-F-G-M(S = O)-K-βA-K(MR)-NH2 [SVC-068] |  | not recognised by MMP
21 |  |  |  |  |  | 1.47 | 1.06 |  |  | FAM-Ahx-G-P-K-G-L-K-G-3 probe elements ({5FAM-Ahx}-GPKGLKG; also: three probe elements on a scaffold) [TWB140] |  | 
22 | 2.70 | 1.48 | 1.46 | 4.53 | 11.75 |  |  |  |  | FAM-PEG2-G-P-K-G-Nle-K-G-K(MR)-NH2 [SVC-27] |  | 
